Experimental data: article PMC8900595 (Journal of medicinal chemistry, 2021)

Columns and labels:
[1] = tested on: WSN-PB2-Nanoluc virus; format: cell-based, influenza A virus
[2] = tested on: A/WSN/33; format: cell-based, influenza A virus
[3] = tested on: H1N1 A/WSN/1933 virus; format: cell-based, influenza A virus
[4] = tested on: WSN-PB2-Nanoluc virus; assay: microbe, parasite or virus in culture; format: cell-based; settings: Influenza A virus, HCT-116, read-out: IC50, Nanoluc levels
[5] = tested on: A549 cells; settings: human
[6] = tested on: A/WSN/33; format: cell-based, influenza A virus; remark: listed apart in the source
[7] = tested on: H3N2 A/Panama/1999; format: cell-based, influenza A virus
[8] = tested on: HA-mediated membrane fusion; format: cell-based, influenza A virus; settings: pH 5
[9] = tested on: A/WSN/33; assay: microbe, parasite or virus in culture; format: cell-based, influenza A virus
[10] = tested on: H3N2 (A/Wyoming/03/2003); format: cell-based, influenza A virus
[11] = tested on: influenza virus; format: cell-based
[12] = tested on: H5N1 A/Vietnam/1203/2004 HaLo virus; format: cell-based, influenza A virus; settings: 25 μM, MOI = 0.01, 24 h, A549 cells
[13] = tested on: poly(A) RNA and GAPDH mRNA; assay: RNA-FISH and smRNA-FISH of cellular RNA in uninfected cells; format: cell-based, human; settings: 1 μM
[14] = tested on: H1N1 (A/California/07/2009); format: cell-based, influenza A virus

Q: Which “activity under the assay conditions” value [1] does the source give for “2,5-Dichloro-N-(4-chloro-2-methylphenyl)benzamide [compound 51]” here?
A: inactive

Q: Which results are given for `CCN(c1ccccc1C)S(=O)(=O)c1cc(Cl)ccc1Cl` [compound 1, 2,5-dichloro-N-ethyl-N-(o-tolyl)-benzenesulfonamide]?
A: viral M mRNA expression, compound added after infection [2]: robustly expressed; viral M mRNA expression, compound added prior to infection [2]: expressed at very low levels; viral mRNA levels (HA, NS1, M1, M2) by qPCR [2]: reduced levels of viral mRNAs; viral mRNA levels (M, HA, NS) by smRNA-FISH [2]: reduced influenza virus (A/WSN/33) mRNA levels; reduction of viral titers [3]: four; IC50 [4]: 16.8 nM; Cytotoxicity (MTT) CC10 [5]: >25 µM; antiviral activity when used shortly post-infection (western blot NP, M1) [6]: lack of antiviral activity; viral protein levels (western blot) [6]: reduced levels of influenza virus proteins; reduction of viral titers [7]: four; inhibition of fusion (hemolysis) [8]: robust inhibition of fusion; selectivity index [9]: >625; number of infected cells [10]: slightly inhibited the number of infected cells; viral mRNA levels in primary cells [11]: robustly decreased viral mRNA levels; reduction of viral titers [12]: four; effect on cellular bulk poly(A) RNA or GAPDH [13]: did not have a significant effect; number of infected cells [14]: robustly reduced the number of cells infected

Q: How did the “Cytotoxicity (MTT) CC10” value [5] turn out when `C#CCN(c1ccccc1C)S(=O)(=O)c1cc(Cl)ccc1Cl` [compound 5, 2,5-Dichloro-N-(prop-2-yn-1-yl)-N-(o-tolyl)benzenesulfonamide] was run?
A: >5 µM

Q: And the selectivity index [9]?
A: >13

Q: Which “Cytotoxicity (MTT) CC10” value [5] does the source give for `Cc1ccccc1N(C(C)C)S(=O)(=O)c1cc(Cl)ccc1Cl` [compound 6, 2,5-Dichloro-N-isopropyl-N-(o-tolyl)benzenesulfonamide] here?
A: >5 µM

Q: What about the “loss of activity compared to compound 1” value [9] of the same compound?
A: greater than 10 fold

Q: What about the selectivity index [9] of the same compound?
A: >3

Q: For `CCN(c1ccccc1)S(=O)(=O)c1cc(Cl)ccc1Cl` [compound 7, 2,5-Dichloro-N-ethyl-N-phenylbenzenesulfonamide], which “Cytotoxicity (MTT) CC10” value [5] is on record?
A: >5 µM

Q: And the “loss of activity on removing the 2-methyl group” value [9]?
A: greater than 10 ×

Q: What about the selectivity index [9] of the same compound?
A: >6

Q: Which results are given for `CCN(c1ccccc1Cl)S(=O)(=O)c1cc(Cl)ccc1Cl` [compound 8, 2,5-Dichloro-N-(2-chlorophenyl)-N-ethylbenzenesulfonamide]?
A: Cytotoxicity (MTT) CC10 [5]: >5 µM; antiviral activity as described in SAR text [9]: less effective; selectivity index [9]: >33

Q: Which results are given for `CCN(c1ccccc1C#N)S(=O)(=O)c1cc(Cl)ccc1Cl` [compound 9, 2,5-Dichloro-N-(2-cyanophenyl)-N-ethylbenzenesulfonamide]?
A: Cytotoxicity (MTT) CC10 [5]: >5 µM; antiviral activity as described in SAR text [9]: less effective; selectivity index [9]: >29

Q: For `CCN(c1ccc(F)cc1)S(=O)(=O)c1cc(Cl)ccc1Cl` [compound 10], which “Cytotoxicity (MTT) CC10” value [5] is on record?
A: >5 µM

Q: What about the “antiviral activity as described in SAR text” value [9] of the same compound?
A: similarly potent

Q: What about the selectivity index [9] of the same compound?
A: >74

Q: Which “Cytotoxicity (MTT) CC10” value [5] does the source give for `CCN(c1ccc(C)cc1)S(=O)(=O)c1cc(Cl)ccc1Cl` [compound 11, 2,5-Dichloro-N-ethyl-N-(p-tolyl)benzenesulfonamide] here?
A: >25 µM

Q: And the “antiviral activity as described in SAR text” value [9]?
A: well tolerated

Q: And the selectivity index [9]?
A: >298

Q: With `CCN(c1ccc(Cl)cc1C)S(=O)(=O)c1cc(Cl)ccc1Cl` [compound 12, 2,5-Dichloro-N-(4-chloro-2-methylphenyl)-N-ethylbenzenesulfonamide] as the compound, how does the “Cytotoxicity (MTT) CC10” value [5] read?
A: >5 µM

Q: What about the “antiviral activity as described in SAR text” value [9] of the same compound?
A: generally more potent

Q: What about the selectivity index [9] of the same compound?
A: >147

Q: What about the “number of infected cells” value [10] of the same compound?
A: more effectively decreased infection

Q: And the “number of infected cells” value [14]?
A: robustly reduced the number of cells infected

Q: Which results are given for `C=CCN(c1ccc(Cl)cc1C)S(=O)(=O)c1cc(Cl)ccc1Cl` [compound 13, N-Allyl-2,5-dichloro-N-(4-chloro-2-methylphenyl)benzenesulfonamide]?
A: Cytotoxicity (MTT) CC10 [5]: >5 µM; antiviral activity as described in SAR text [9]: generally more potent; selectivity index [9]: >135

Q: For `C#CCN(c1ccc(Cl)cc1C)S(=O)(=O)c1cc(Cl)ccc1Cl` [compound 14, 2,5-Dichloro-N-(4-chloro-2-methylphenyl)-N-(prop-2-yn-1-yl)benzenesulfonamide], which “Cytotoxicity (MTT) CC10” value [5] is on record?
A: >5 µM

Q: What about the “antiviral activity as described in SAR text” value [9] of the same compound?
A: generally more potent

Q: What about the selectivity index [9] of the same compound?
A: >42

Q: What does the source list for `Cc1cc(Cl)ccc1N(CC1CC1)S(=O)(=O)c1cc(Cl)ccc1Cl` [compound 15, 2,5-Dichloro-N-(4-chloro-2-methylphenyl)-N-(cyclopropylmethyl)benzenesulfonamide]?
A: Cytotoxicity (MTT) CC10 [5]: >5 µM; less active than the N-ethyl version (12) [9]: greater than 10 ×; selectivity index [9]: >10

Q: Which “Cytotoxicity (MTT) CC10” value [5] does the source give for `COCCN(c1ccc(Cl)cc1C)S(=O)(=O)c1cc(Cl)ccc1Cl` [compound 16, 2,5-Dichloro-N-(4-chloro-2-methylphenyl)-N-(2-methoxyethyl)-benzenesulfonamide] here?
A: >5 µM

Q: And the “antiviral activity as described in SAR text” value [9]?
A: lower activity

Q: What about the selectivity index [9] of the same compound?
A: >4

Q: Which results are given for `Cc1cc(Cl)ccc1N(CCO)S(=O)(=O)c1cc(Cl)ccc1Cl` [compound 17, 2,5-Dichloro-N-(4-chloro-2-methylphenyl)-N-(2-hydroxyethyl)benzenesulfonamide]?
A: Cytotoxicity (MTT) CC10 [5]: >5 µM; antiviral activity as described in SAR text [9]: lower activity

Q: Which “Cytotoxicity (MTT) CC10” value [5] does the source give for `Cc1cc(Cl)ccc1N(CCF)S(=O)(=O)c1cc(Cl)ccc1Cl` [compound 18, 2,5-Dichloro-N-(4-chloro-2-methylphenyl)-N-(2-fluoroethyl)-benzenesulfonamide] here?
A: >5 µM

Q: And the “antiviral activity as described in SAR text” value [9]?
A: lower activity

Q: What about the selectivity index [9] of the same compound?
A: >9

Q: What about the IC50 ([9]; Influenza A virus, WSN, A549, 24 h, read-out: viral replication IC50) of the same compound?
A: 550 nM

Q: `Cc1cc(Cl)ccc1N(C(F)F)S(=O)(=O)c1cc(Cl)ccc1Cl` [compound 19, 2,5-Dichloro-N-(4-chloro-2-methylphenyl)-N-(difluoromethyl)benzenesulfonamide] was tested. Which “Cytotoxicity (MTT) CC10” value [5] did it give?
A: >5 µM

Q: And the “antiviral activity as described in SAR text” value [9]?
A: lower activity

Q: And the selectivity index [9]?
A: >4

Q: With `CCN(c1ccc(Cl)cc1F)S(=O)(=O)c1cc(Cl)ccc1Cl` [compound 20, 2,5-Dichloro-N-(4-chloro-2-fluorophenyl)-N-ethylbenzenesulfonamide] as the compound, how does the “Cytotoxicity (MTT) CC10” value [5] read?
A: >5 µM

Q: What about the selectivity index [9] of the same compound?
A: >33

Q: `CCN(c1ccc(F)cc1F)S(=O)(=O)c1cc(Cl)ccc1Cl` [compound 21, 2,5-Dichloro-N-(2,4-difluorophenyl)-N-ethylbenzenesulfonamide] was tested. Which “Cytotoxicity (MTT) CC10” value [5] did it give?
A: >5 µM

Q: And the “antiviral activity as described in SAR text” value [9]?
A: equipotent to compound 1

Q: And the selectivity index [9]?
A: >96

Q: And the “number of infected cells” value [10]?
A: slightly inhibited the number of infected cells

Q: What about the “number of infected cells” value [14] of the same compound?
A: robustly reduced the number of cells infected

Q: Which results are given for `CCN(c1c(C)cc(Cl)cc1Cl)S(=O)(=O)c1cc(Cl)ccc1Cl` [compound 22, 2,5-Dichloro-N-(2,4-dichloro-6-methylphenyl)-N-ethylbenzenesulfonamide]?
A: Cytotoxicity (MTT) CC10 [5]: >5 µM; antiviral activity as described in SAR text [9]: less active; selectivity index [9]: >13

Q: Which results are given for `CCOC(=O)Cc1ccc(N(CC)S(=O)(=O)c2cc(Cl)ccc2Cl)cc1` [compound 24, Ethyl 2-(4-((2,5-Dichloro-N-ethylphenyl)sulfonamido)phenyl)-acetate]?
A: Cytotoxicity (MTT) CC10 [5]: >5 µM; selectivity index [9]: >63

Q: `O=S(=O)(c1cc(Cl)ccc1Cl)N1CCc2cc(Cl)ccc21` [compound 49, 5-Chloro-1-((2,5-dichlorophenyl)sulfonyl)indoline] was tested. Which “activity under the assay conditions” value [1] did it give?
A: inactive

Q: `O=S(=O)(c1cc(Cl)ccc1Cl)N1CCCc2cc(Cl)ccc21` [compound 50, 6-Chloro-1-((2,5-dichlorophenyl)sulfonyl)-1,2,3,4-tetrahydroquinoline] was tested. Which “activity under the assay conditions” value [1] did it give?
A: inactive

Q: Which “activity under the assay conditions” value [1] does the source give for `C#CCCC1(CCN(c2ccc(Cl)cc2C)S(=O)(=O)c2cc(Cl)ccc2Cl)N=N1` [compound 52, N-(2-(3-(But-3-yn-1-yl)-3H-diazirin-3-yl)ethyl)-2,5-dichloro-N-(4-chloro-2-methylphenyl)benzenesulfonamide] here?
A: not active

Q: `C#CCCC1(CCOC(=O)Cc2ccc(N(CC)S(=O)(=O)c3cc(Cl)ccc3Cl)cc2)N=N1` [compound 53, 2-(3-(But-3-yn-1-yl)-3H-diazirin-3-yl)ethyl 2-(4-((2,5-Dichloro-Nethylphenyl)sulfonamido)phenyl)acetate] was tested. Which “activity under the assay conditions” value [1] did it give?
A: not active

Q: `C#CCN(c1cccc(N=[N+]=[N-])c1)S(=O)(=O)c1cc(Cl)ccc1Cl` [compound 54, N-(3-Azidophenyl)-2,5-dichloro-N-(prop-2-yn-1-yl)benzenesulfonamide] was tested. Which “activity under the assay conditions” value [1] did it give?
A: retained robust activity
